Measurements published in US10829446B2, “Aryl sulfonohydrazides” (MONASH UNIVERSITY, priority 2015, dated 2020).
pIC50: −log10 of the molar value. Each block holds one compound with its values, some of them ahead of it.

How the values were obtained:
MOZ enzyme = MOZ enzyme (Homo sapiens (Human), UniProt Q92794); assay: Moz biochemical assay (AlphaScreen histone H4 peptide acetylation)
INK4a and ARF null cells = assay: Bioassay 1 repeated in INK4a and ARF null cells; type: cell-based; conditions: 1 μM, 2 μM, 5 μM, 10 μM
Protocol: Cells are plated in triplicate cultures at 10,204 cells/cm^2 in the presence of a test compound. Compounds are tested at 500 nM, 1 μM, 2 μM, 5 μM, 10 μM and 20 μM. Control compounds include those that have a similar structure but show no activity in biochemical assays. After 48 hours, cells are passaged and counted, then replated at 10,204/cm^2. This procedure is continued for 336 hours. The total number of cells produced at each passage is then calculated and compared between treatment groups. […] Cells are analysed by flow cytometry for the absence of markers of apoptosis by staining with propidium iodide and FITC-conjugated annexin V. The level of DNA damaged is assessed by γH2A.X staining, a marker of DNA strand breaks.
The mechanism of action of these compounds, i.e. causing cell cycle arrest and senescence, was confirmed by repeating this assay using cells in which the INK4a/ARF pathways was inactivated by genetic deletion of a key exon common to both INK4a and the alternative splice product of the CDKN2a locus ARF.

B cell lineage = assay: Bioassay 10: effect on the B cell lineage in treated mice; type: in vivo; conditions: for numbers of pre B cells in the bone marrow: in words, daily I.P. injection; for immature B cells, percentage of WBC per femur / mature B cells, percentage of WBC per femur / pre-B cells, percentage of WBC per femur / pro-B cells, percentage of WBC per femur: wild type mice, 50 mg/kg I.P. daily
Protocol: Mice were treated with compounds at the dosage of 50 mg/kg by I.P injection. Compounds are prepared for injection as a slurry in 50% PEG400/H2O. The effect on the B cell lineage is determined by fluorescent cytometry using characteristic cell surface markers expressed at different stages of B cell development.

Cdc6 mRNA = assay: Bioassay 2: RT-qPCR of MOZ target genes in mouse embryonic fibroblasts; type: cell-based; conditions: 5 μM
Protocol: Mouse embryonic fibroblasts are isolated from wild type or Moz heterozygous animals and cultured at 3% oxygen/5% carbon dioxide/92% nitrogen. Cells are plated at a density of 1,020 cells/cm^2 or 2,040 cells/cm^2 or 10,204 cells/cm^2. A reference value for MOZ inhibition is generated through comparison with cells with a complete null mutation of MOZ. The absence of a functional Moz gene leads to senescence in 7-14 days at 3% oxygen.
Cells are plated in triplicate at 2,040 cells/cm^2 in the presence of a test compound. Compounds are tested at 500 nM, 1 μM, 2 μM, 5 μM, 10 μM and 20 μM. Control compounds include those that have a similar structure but show no activity in biochemical assays. […] RT-qPCR is used to assay the levels of MOZ target genes Ink4a, ink4b, Arf, Cdc6, Cdca8, Cdca2, E2f2, Ezh2, Skp2 and Melk.

Wild type pre B cells [1] = assay: Bioassay 8: cell cycle analysis (DNA content and Ki67); type: cell-based; conditions: 1 μM
Protocol: (§1) Pre B cells are isolated from bone marrow according to the criterion: cell surface expression of B220, CD19, but not cKit or IgM. Pre-B cells are cultured on OP9 cells with IL7 in the presence of compounds at various concentrations. The stages of the cell cycle in cultured pre-B cells with and without treatment is analysed by flow cytometry using a stain for DNA content combined with the cell cycle marker Ki67 to enumerate the proportion of cells in different phases of the cell cycle.

Wild type pre B cells [2] = assay: Bioassay 7: pre-B cell number dose response, wild type; type: cell-based; conditions: in words
Protocol: Pre B cells are isolated from bone marrow according to the criterion: cell surface expression of B220, CD19, but not cKit or IgM. Pre-B cells are cultured on OP9 cells with IL7 in the presence of compounds at concentrations from 0.01 μM to 20 μM in vitro for 4 days. Cell number is then enumerated and an IC50 is calculated.

wild type pre-B cells = assay: Bioassay 9: cell cycle analysis (DNA content and BrdU); type: cell-based; conditions: 1 μM
Protocol: as §1, with “in” for “in cultured”, “using” for “by”, “cytometry to assay,” for “cytometry”, “BrdU” for “the cell cycle marker Ki67”, “determine” for “enumerate”, “S phase.” for “different phases of the cell cycle.”

[3] = tested on: Eμ-Myc pre-leukemia pro-B cells; assay: Bioassay 5: pro-B cell colony formation in methylcellulose, Eμ-Myc; type: cell-based; conditions: 1 μM, Eμ-Myc pre-leukemia pro-B cells
Protocol: (§2) Pro-B cells are purified by positive selection using antiCD19-magnetic beads and fluorescence activated cell sorting using the criterion: cell surface expression of B220, CD19 and cKit but not IgM. After purification, 25,000 pro-B cells are seeded onto 3.5 cm culture dishes plate containing methylcellulose (MethoCult M3630, STEM CELL technologies) for 7 days. After 7 days culture, colonies in which there were more than 50 cells are counted. Subsequently, 190,000 pro-B cells are replated into methylcellulose for another 7 days of culture, followed by enumeration.

wild type pro-B cells = assay: Bioassay 5: pro-B cell colony formation in methylcellulose, wild type; type: cell-based
Protocol: as §2

MOZ enzyme, sequence (Q92794 whole entry, species assumed): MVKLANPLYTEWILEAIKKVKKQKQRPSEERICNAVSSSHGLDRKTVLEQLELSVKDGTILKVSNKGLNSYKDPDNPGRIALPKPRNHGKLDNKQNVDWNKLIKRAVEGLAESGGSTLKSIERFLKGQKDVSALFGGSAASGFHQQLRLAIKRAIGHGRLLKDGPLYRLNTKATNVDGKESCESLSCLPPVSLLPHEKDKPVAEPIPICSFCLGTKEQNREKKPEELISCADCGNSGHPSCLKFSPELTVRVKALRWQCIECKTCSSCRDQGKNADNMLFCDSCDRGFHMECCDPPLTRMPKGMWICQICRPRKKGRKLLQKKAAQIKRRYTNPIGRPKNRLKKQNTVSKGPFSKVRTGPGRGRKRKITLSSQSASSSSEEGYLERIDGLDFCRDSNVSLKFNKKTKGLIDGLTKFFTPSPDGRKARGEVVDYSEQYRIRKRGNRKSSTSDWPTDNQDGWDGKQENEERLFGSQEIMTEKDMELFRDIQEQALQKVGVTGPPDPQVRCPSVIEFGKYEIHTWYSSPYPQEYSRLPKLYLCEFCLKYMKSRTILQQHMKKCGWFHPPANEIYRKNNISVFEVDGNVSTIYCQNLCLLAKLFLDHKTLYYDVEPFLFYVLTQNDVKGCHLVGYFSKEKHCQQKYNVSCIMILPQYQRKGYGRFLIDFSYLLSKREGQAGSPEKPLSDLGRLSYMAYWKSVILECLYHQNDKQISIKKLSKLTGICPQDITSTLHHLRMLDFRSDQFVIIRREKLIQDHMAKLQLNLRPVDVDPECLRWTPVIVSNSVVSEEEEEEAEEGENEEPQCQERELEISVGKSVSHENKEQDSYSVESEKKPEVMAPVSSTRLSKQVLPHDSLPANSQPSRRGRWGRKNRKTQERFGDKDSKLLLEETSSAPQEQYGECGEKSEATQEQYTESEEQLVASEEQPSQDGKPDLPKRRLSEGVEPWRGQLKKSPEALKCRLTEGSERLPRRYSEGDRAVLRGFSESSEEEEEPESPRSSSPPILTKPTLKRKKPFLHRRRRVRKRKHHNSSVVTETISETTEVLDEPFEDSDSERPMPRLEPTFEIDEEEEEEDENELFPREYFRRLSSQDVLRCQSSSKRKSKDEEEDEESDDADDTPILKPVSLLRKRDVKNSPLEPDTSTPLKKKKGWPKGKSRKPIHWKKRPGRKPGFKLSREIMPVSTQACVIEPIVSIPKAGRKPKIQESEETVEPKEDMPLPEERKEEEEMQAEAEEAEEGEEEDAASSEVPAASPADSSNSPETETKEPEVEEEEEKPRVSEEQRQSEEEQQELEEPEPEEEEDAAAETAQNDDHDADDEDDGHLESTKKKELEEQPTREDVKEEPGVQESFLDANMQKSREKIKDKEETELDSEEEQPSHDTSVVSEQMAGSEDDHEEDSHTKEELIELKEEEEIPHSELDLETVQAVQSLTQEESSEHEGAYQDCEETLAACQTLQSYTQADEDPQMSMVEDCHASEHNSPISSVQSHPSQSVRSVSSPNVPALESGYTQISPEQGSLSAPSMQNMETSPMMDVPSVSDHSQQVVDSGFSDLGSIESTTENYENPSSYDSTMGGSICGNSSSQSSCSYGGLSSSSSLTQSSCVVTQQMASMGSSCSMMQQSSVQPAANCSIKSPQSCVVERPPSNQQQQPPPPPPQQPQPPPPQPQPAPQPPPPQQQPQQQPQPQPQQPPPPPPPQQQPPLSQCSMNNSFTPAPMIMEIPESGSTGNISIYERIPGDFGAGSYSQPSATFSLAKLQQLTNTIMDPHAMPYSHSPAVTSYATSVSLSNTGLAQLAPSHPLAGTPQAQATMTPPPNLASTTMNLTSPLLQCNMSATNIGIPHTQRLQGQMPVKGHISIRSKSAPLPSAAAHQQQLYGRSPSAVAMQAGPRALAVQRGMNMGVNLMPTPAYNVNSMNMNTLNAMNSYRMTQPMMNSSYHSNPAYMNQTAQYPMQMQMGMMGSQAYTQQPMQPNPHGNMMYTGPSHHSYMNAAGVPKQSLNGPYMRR

Structure (SMILES): CC(C)c1cccc(C(=O)NNS(=O)(=O)c2ccc3ccccc3c2)c1 [Compound 3]
- pIC50 (MOZ enzyme): 5.11

Structure (SMILES): Cc1cccc(C(=O)NNS(=O)(=O)c2ccc3ccccc3c2)c1F [Compound 4]
- pIC50 (MOZ enzyme): 6.71

Structure (SMILES): O=C(NNS(=O)(=O)c1ccccc1)c1cccc(-c2cc[nH]n2)c1 [Compound 7]
- pIC50 (MOZ enzyme): 5.13

Structure (SMILES): O=C(NNS(=O)(=O)c1ccccc1)c1cccc(-c2cccs2)c1 [Compound 14]
- pIC50 (MOZ enzyme): 6.33

Structure (SMILES): O=C(NNS(=O)(=O)c1ccccc1)c1cccc(-c2ccc(F)cc2)c1 [Compound 25]
- pIC50 (MOZ enzyme): 5.42

Structure (SMILES): COc1cccc(-c2cccc(C(=O)NNS(=O)(=O)c3ccccc3)c2)c1 [Compound 28]
- pIC50 (MOZ enzyme): 5.49

Structure (SMILES): O=C(NNS(=O)(=O)c1ccccc1)c1cccc(-c2ccccc2F)c1 [Compound 29]
- pIC50 (MOZ enzyme): 6.26

Structure (SMILES): N#Cc1cccc(-c2cccc(C(=O)NNS(=O)(=O)c3ccccc3)c2)c1 [Compound 31]
- pIC50 (MOZ enzyme): 5.07

Structure (SMILES): O=C(NNS(=O)(=O)c1ccccc1)c1cccc(-c2ccc(Cl)cc2)c1 [Compound 32]
- pIC50 (MOZ enzyme): 4.59

Structure (SMILES): O=C(NNS(=O)(=O)c1ccccc1)c1cccc(-c2ccccc2)c1F [Compound 33]
- pIC50 (MOZ enzyme): 6.57

Structure (SMILES): O=C(NNS(=O)(=O)c1ccccc1)c1cccc(-c2ccccc2Cl)c1 [Compound 34]
- pIC50 (MOZ enzyme): 5.10

Structure (SMILES): O=C(NNS(=O)(=O)c1ccccc1)c1cc(-c2cccs2)cc(Cl)c1F [Compound 37]
- pIC50 (MOZ enzyme): 4.07
- inhibition of cell proliferation (INK4a and ARF null cells): no inhibition of cell proliferation was detected

Structure (SMILES): O=C(NNS(=O)(=O)c1ccccc1F)c1cc(F)cc(-c2ccccn2)c1 [Compound 46]
- numbers of pre B cells in the bone marrow (B cell lineage): markedly reduced numbers of pre B cells in the bone marrow
- immature B cells, percentage of WBC per femur (B cell lineage): 3.33%
- mature B cells, percentage of WBC per femur (B cell lineage): 3.65%
- pre-B cells, percentage of WBC per femur (B cell lineage): 10.59%
- pro-B cells, percentage of WBC per femur (B cell lineage): 1.14%

Structure (SMILES): Cc1cc(-c2ncccn2)cc(C(=O)NNS(=O)(=O)c2ccccc2)c1F [Compound 53]
- CDC6 mRNA % control (Cdc6 mRNA): 62.8%

Structure (SMILES): O=C(NNS(=O)(=O)c1ccccc1F)c1cc(F)cc(-n2cccn2)c1 [Compound 64]
- CDC6 mRNA % control (Cdc6 mRNA): 60.9%

Structure (SMILES): O=C(NNS(=O)(=O)c1ccccc1F)c1cccc(OCC2CC2)c1 [Compound 90]
- pIC50 (MOZ enzyme): 6.94

Structure (SMILES): O=C(NNS(=O)(=O)c1ccccc1)c1ccnc(-c2ccccc2)c1 [Compound 106]
- pIC50 (MOZ enzyme): 4.72

Structure (SMILES): O=C(NNS(=O)(=O)c1ccccc1)c1cc(-c2ccnnc2)ccc1F [Compound 108]
- cells in G0 (Wild type pre B cells [1]; cultured for 4 days): 10.8%
- cells in G1 (Wild type pre B cells [1]; cultured for 4 days): 53.7%
- cells in G2/M (Wild type pre B cells [1]; cultured for 4 days): 12.1%
- cells in S (Wild type pre B cells [1]; cultured for 4 days): 23.6%
- cells in G0 (Wild type pre B cells [1]; cultured for 6 days): 8.6%
- cells in G1 (Wild type pre B cells [1]; cultured for 6 days): 62.0%
- cells in G2/M (Wild type pre B cells [1]; cultured for 6 days): 8.5%
- cells in S (Wild type pre B cells [1]; cultured for 6 days): 14.7%
- effect on pre B cell proliferation (Wild type pre B cells [2]): has no effect
- cells in G0/G1 (BrdU) (wild type pre-B cells): 44.2
- cells in G2/M (BrdU) (wild type pre-B cells): 5.2
- cells in S (BrdU) (wild type pre-B cells): 46.2
- colony number ([3]; primary colonies): 180.5
- colony number, secondary colony formation ([3]; secondary colony formation): 78
- colony number (wild type pro-B cells; 1 μM, wild type pro-B cells, primary colonies): 245.125
- colony number, secondary colony formation (wild type pro-B cells; 1 μM, wild type pro-B cells, secondary colony formation): 77
- colony formation (wild type pro-B cells; in words, compared to vehicle): inactive

Structure (SMILES): O=C(NNS(=O)(=O)c1ccccc1)c1cncc(-c2ccccc2)c1 [Compound 109]
- pIC50 (MOZ enzyme): 4.67

Structure (SMILES): CCOc1cc(C)cc(C(=O)NNS(=O)(=O)c2ccccc2F)c1 [Compound 137]
- CDC6 mRNA % control (Cdc6 mRNA): 67.5%
- numbers of pre B cells in the bone marrow (B cell lineage): markedly reduced numbers of pre B cells in the bone marrow
- immature B cells, percentage of WBC per femur (B cell lineage): 3.92%
- mature B cells, percentage of WBC per femur (B cell lineage): 3.16%
- pre-B cells, percentage of WBC per femur (B cell lineage): 12.71%
- pro-B cells, percentage of WBC per femur (B cell lineage): 1.01%

Structure (SMILES): O=S(=O)(NNCc1cccc(-c2cccc(Cl)c2)c1)c1ccccc1 [Compound 147]
- pIC50 (MOZ enzyme): 4.04

Structure (SMILES): Cc1cccc(C(=O)NNS(=O)(=O)c2ccc3ccccc3c2)c1 [Compound 148]
- pIC50 (MOZ enzyme): 5.75

Structure (SMILES): Cc1cc(-c2ccccc2)c(F)c(C(=O)NNS(=O)(=O)c2ccccc2)c1F [Compound 154]
- pIC50 (MOZ enzyme): 8.00

Structure (SMILES): Cc1cc(-n2cccn2)c(F)c(C(=O)NNS(=O)(=O)c2ccccc2)c1F [Compound 155]
- pIC50 (MOZ enzyme): 7.15

Continued by rising pIC50 (MOZ enzyme), values first:

- pIC50 (MOZ enzyme): 4.40
Structure (SMILES): COc1ccc(-c2cccc(C(=O)NNS(=O)(=O)c3ccccc3)c2)cc1 [Compound 26]

- pIC50 (MOZ enzyme): 4.78
Structure (SMILES): O=C(NNS(=O)(=O)c1ccccc1)c1cccc(-c2ccccc2)n1 [Compound 116]

- pIC50 (MOZ enzyme): 4.88
Structure (SMILES): O=C(NNS(=O)(=O)c1ccccc1)c1cccc(-c2cccnc2)c1 [Compound 98]

- pIC50 (MOZ enzyme): 4.95
Structure (SMILES): COc1ccccc1-c1cccc(C(=O)NNS(=O)(=O)c2ccccc2)c1 [Compound 27]

- pIC50 (MOZ enzyme): 5.53
Structure (SMILES): O=C(NNS(=O)(=O)c1ccc2ccccc2c1)c1cccc(-c2ccccc2)c1 [Compound 1]

- pIC50 (MOZ enzyme): 5.69
Structure (SMILES): O=C(NNS(=O)(=O)c1ccccc1)c1cccc(I)c1 [Compound 6]

- pIC50 (MOZ enzyme): 6.08
Structure (SMILES): O=C(NNS(=O)(=O)c1ccccc1)c1cc(-c2ccc(F)cc2)ccc1F [Compound 133]

- pIC50 (MOZ enzyme): 6.14
Structure (SMILES): O=C(NNS(=O)(=O)c1ccccc1)c1cccc(-c2cccc(F)c2)c1 [Compound 30]

- pIC50 (MOZ enzyme): 6.54
Structure (SMILES): O=C(NNS(=O)(=O)c1ccccc1)c1cccc(-c2ccccc2)c1 [Compound 2]

- pIC50 (MOZ enzyme): 6.79
Structure (SMILES): O=C(NNS(=O)(=O)c1ccccc1)c1cccc(-c2ccsc2)c1 [Compound 8]

- pIC50 (MOZ enzyme): 7.09
Structure (SMILES): O=C(NNS(=O)(=O)c1ccccc1)c1cc(-c2ccccc2)cc(Cl)c1F [Compound 35]

- pIC50 (MOZ enzyme): 7.77
Structure (SMILES): O=C(NNS(=O)(=O)c1ccccc1)c1cc(-c2ccccc2)ccc1F [Compound 157]
